Like-named read-outs stand apart in the source and are kept apart here.
Key:
VCaP cells [1] = assay: Cell viability assay (CellTiter-Glo, 5 days); format: cell-based, human; settings: Homo sapiens, VCaP
Description: (§1) Cells were seeded in 96-well plates and incubated at 37°C with 5% CO2 overnight. A series of compound dilutions were added into the cells. After 5 days incubation, cell proliferation was tested using the CellTiter-Glo assay (Promega) according to the manufacturer’s protocol. Luminescence was measured using the Infinite M1000 Pro plate reader (Tecan). Data analysis was conducted using GraphPad Prism software.

PC310 organoids = assay: PC310 organoid viability dose-response; format: cell-based; settings: Homo sapiens, Figure S1J
[2] = test system: benign immortalized cell lines (PrEC, WPMY-1, BPH-1, RWPE1, PNT2, MCF10A, MCF12A); assay: Cell viability, benign immortalized cell lines; format: cell-based; settings: Homo sapiens, 120 h; most benign immortalized cell lines, 5 days; read-out: half-maximal inhibitory concentration [IC50]
Description: as §1

[3] = test system: androgen receptor (AR)-positive prostate and breast cancer cells; assay: Cell viability screening, panel of 155 normal and cancer cell lines; format: cell-based; settings: Homo sapiens, 120 h, 5 days, Figure 1G
Description: as §1

[4] = test system: normal and non-neoplastic cells; assay: as above; format: cell-based; settings: Homo sapiens, 120 h, 5 days, Figure 1G
Description: as §1

prostate cancer cells = assay: Cell viability, prostate cancer cells; format: cell-based; settings: Homo sapiens, Figure 3A
Description: as §1

CDK12 and CDK13 = settings: VCaP cells
Description: After treatment of varying conditions, cell lysates were prepared using RIPA buffer (ThermoFisher Scientific) supplemented with cOmplete protease inhibitor cocktail tablets (Sigma-Aldrich). The Pierce BCA Protein Assay Kit ([…]) was used to determine the protein concentrations. Proteins with an equal amount from each sample were loaded on NuPAGE 3–8% Tris-Acetate or 4–12% Bis-Tris protein gels (ThermoFisher Scientific) and subsequently transferred to membranes, which were blocked using 5% nonfat milk. Following blocking at room temperature for 1 h, the membrane was further incubated with varying primary antibodies at 4°C overnight. HRP-conjugated secondary antibodies were used for detection, and membrane imaging was conducted using an Odyssey Fc Imager (LI-COR Biosciences).

[5] = Pharmacokinetic profile in CD-1 mice; format: in vivo; settings: plasma, CD-1 mouse; for AUC: read-out: AUC(0-⊠)
[6] = test system: castrated VCaP xenograft (VCaP-CRPC); assay: VCaP castration-resistant prostate cancer xenograft efficacy; format: in vivo, mouse; settings: i.v. 30 mg/kg 3x/week, 18 days
Description: (§2) Six-week-old male CB17SCID mice obtained from Charles River (Stock # 236), were used to establish subcutaneous tumors on both dorsal flanks. Tumor dimensions were measured biweekly using digital calipers, applying the formula (π/6) (L × W^2), where L and W represent tumor length and width, respectively. At the study conclusion, mice were euthanized, and tumors were excised and weighed. The University of Michigan Institutional Animal Care and Use Committee (IACUC) approved all in vivo studies.
For the VCaP castration-resistant tumor model, 3×10^6 VCaP cells were subcutaneously injected into both dorsal flanks of mice using a serum-free medium mixed with 50% Matrigel (BD Biosciences). Upon tumors reaching palpable size (∼200 mm^3), animals underwent castration. When tumors regrew to their pre-castration size, mice were randomized for treatment with 30 mg/kg YJ9069 or vehicle via intravenous injection or 100 mg/kg YJ1206 or vehicle, […]

WA74 PDX = assay: WA74 patient-derived xenograft efficacy; format: in vivo, mouse
Description: as §2
WA74 PDX model was developed at the University of Michigan during collection of a rapid autopsy case as part of the Michigan Legacy Tissue Program (MLTP). PC310 PDX model was obtained from Erasmus Medical Center, Rotterdam, the Netherlands. Both PDX lines were propagated in male CB17SCID mice by surgically implanting 2 mm^3 tumor fragments, coated with 100% Matrigel, into both flanks of mice. When tumors reached approximately 200 mm^3, mice were randomized into treatment groups. These groups received either 30 mg/kg YJ9069 via intravenous injection or 100 mg/kg YJ1206 by oral gavage, both administered three times per week, with or without 15 mg/kg uprosertib by oral gavage five days per week for 3–4 weeks. In accordance with IACUC guidelines, the maximum tumor size was limited to 2.0 cm in any dimension, and mice were euthanized if xenografts reached this endpoint.

VCaP cells [7] = assay: Comet assay; format: cell-based, human; settings: 100 nM, 12 h
Description: VCaP cells were seeded in 6-well plates one day prior to treatment. […] After 12 h incubation, the cells were trypsinized and resuspended at a concentration of 1 × 10^5 cells/mL in ice-cold PBS. The OxiSelect Comet Assay Kit (Cell Biolabs, STA-351) was used to assess DNA damage. Following the manufacturer’s protocol, cells were combined with pre-heated comet agarose at a 1:10 ratio, mixed thoroughly, and then transferred onto slides. The slides were incubated horizontally in the dark at 4°C for 20 min. Afterward, they were immersed in pre-chilled lysis buffer for 40 min at 4°C in the dark, followed by a 30-min incubation in pre-chilled alkaline solution at 4°C in the dark. Electrophoresis was then performed using alkaline solution at 30 V for 20 min. After electrophoresis, the slides were rinsed three times with pre-chilled deionized water, following with 70% ethanol for 5 min and completely dried at 37°C for 30 min. Subsequently, 100 μL of diluted Vista Green DNA dye was applied to each well. After 15 min incubation at room temperature, the comets were observed using a fluorescence microscope and quantified using ImageJ. The quantification figure was generated using GraphPad Prism software.

O=C1CCC(N2C(=O)c3cccc(OCC(=O)N4CCN(c5ccc(N(C(=O)NCc6ccccc6)C6CCC(Nc7ncc8ccccc8n7)CC6)cc5)CC4)c3C2=O)C(=O)N1 (centres unmarked) [YJ9069] gave an IC50 (VCaP cells [1]; 120 h, VCaP cells, 5 days, Figure 4C, read-out: IC50) of 22.2 nM, an IC50 (VCaP cells [1]; 120 h, VCaP cells, 5 days, Figure S1E, read-out: IC50) of 44 nM and an IC50 (VCaP cells [1]; VCaP cell viability, linker optimization, Figure S4B, read-out: VCaP IC50) of 22.9 nM. The IC50 (PC310 organoids) was 107 nM, the IC50 [2] was greater than 10000 nM and the IC50 [3] was less than 500 nM. The IC50 [4] was greater than 10000 nM, the IC50 (prostate cancer cells) was less than 200 nM and the “CDK12/13 degradation (immunoblot)” value (CDK12 and CDK13) was “enhanced degradation of both CDK12 and CDK13 proteins compared to 7f”. It also gave an AUC(0-t) ([5]; iv, i.v. 2.5 mg/kg) of 3150 ng·h/mL, a Cmax ([5]; iv, i.v. 2.5 mg/kg) of 3650 ng/mL and a Tmax ([5]; iv, i.v. 2.5 mg/kg) of 0.08 h. For the same molecule, the clearance ([5]; iv, i.v. 2.5 mg/kg) was 13.1 mL/min/kg, the half-life ([5]; iv, i.v. 2.5 mg/kg) was 5.23 h and the AUC ([5]; iv, i.v. 2.5 mg/kg) was 3220 ng·h/mL. It also gave a bioavailability ([5]; oral, p.o. 10 mg/kg vs i.v. 2.5 mg/kg, read-out: F% (oral bioavailability)) of 1.02%, an AUC(0-t) ([5]; po, p.o. 10 mg/kg) of 128 ng·h/mL and a Cmax ([5]; po, p.o. 10 mg/kg) of 55 ng/mL. It also gave a Tmax ([5]; po, p.o. 10 mg/kg) of 0.25 h, a half-life ([5]; po, p.o. 10 mg/kg) of 2.44 h and an AUC ([5]; po, p.o. 10 mg/kg) of 145 ng·h/mL. The “treated animals with tumor regression exceeding 50%” value ([6]; VCaP-CRPC) was 73%, the “partial response (PR), waterfall plot (RECIST)” value (“partial response (PR)” for short) ([6]; castrated VCaP) was 82% and the “stable disease (SD), waterfall plot (RECIST)” value ([6]; castrated VCaP) was 18%. For the same molecule, the “anti-tumor effect (regression)” value (WA74 PDX; 30 mg/kg, 3 times/week, 21 days) was “regression in all animals”, the “partial response (PR)” value (WA74 PDX; i.v. 30 mg/kg 2x/week) was 43% and the “stable disease (SD), waterfall plot (RECIST)” value (WA74 PDX; i.v. 30 mg/kg 2x/week) was 43%. For the same molecule, the “partial response (PR)” value (WA74 PDX; i.v. 30 mg/kg 3x/week) was 100% and the “DNA damage (tail moment)” value (VCaP cells [7]) was “significant increase in the tail moment”.

Reference: publication PMC11513842, “Development of an orally bioavailable CDK12/13 degrader and induction of synthetic lethality with AKT pathway inhibition” (Cell Reports Medicine, 2024)
